Publication PMC9224512, “New Insights into the Determinants of Specificity in Human Type I Arginase: Generation of a Mutant That Is Only Active with Agmatine as Substrate” (International Journal of Molecular Sciences, 2022)
Substitutions are numbered along the chain they refer to.

Tests used:
[1] = biological target: T1, WT-arginase (human arginase type I) (Homo sapiens, UniProt P05089); test: Kinetic and inhibition studies, wild-type human arginase type I; type: biochemical; settings: for Kis (Ki) / Inhibition type: substrate arginine
T1 construct: made in house; host or cells: E. coli JM109
T1 sequence (P05089 1-322): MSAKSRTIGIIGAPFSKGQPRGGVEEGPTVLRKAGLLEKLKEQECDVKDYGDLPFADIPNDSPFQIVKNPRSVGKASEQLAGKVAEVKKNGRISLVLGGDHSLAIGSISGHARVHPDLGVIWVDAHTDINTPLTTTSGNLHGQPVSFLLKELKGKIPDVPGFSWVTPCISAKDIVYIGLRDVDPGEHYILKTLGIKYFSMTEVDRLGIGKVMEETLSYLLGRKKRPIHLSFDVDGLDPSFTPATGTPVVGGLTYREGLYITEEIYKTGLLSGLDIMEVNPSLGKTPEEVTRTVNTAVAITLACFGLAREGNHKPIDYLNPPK
Protocol: (§1) Bacterial cultures were grown with shaking at 37 °C in Luria Broth media, in the presence of ampicillin (100 μg/mL). The wild-type and mutant human liver arginase cDNAs were directionally cloned into the pBluescript II KS(+) expression vector and then expressed in E. coli JM109, following induction with 1 mM isopropyl β-D-thiogalactopyranoside. The bacterial cells were disrupted by sonication on ice (5 × 30 s pulses), centrifuged for 20 min at 12,000× g, and the obtained supernatant was precipitated with ammonium sulfate (60% saturation). The pellet, collected by centrifugation at 12,000× g for 10 min, was re-suspended in buffer 5 mM Tris–HCl (pH 7.5) containing 2 mM MnCl2 and dialyzed for 6 h at 4 °C against the same buffer. After incubation with 5 mM MnCl2 for 10 min at 60 °C, the enzyme variants were purified as previously described. The purity of the enzymes was evaluated by SDS–PAGE stained by Coomassie blue and immunodetection using an anti- rat arginase I antibody.
(§2) All assays were initiated by adding the enzyme to a previously equilibrated buffer with the substrate in solution (the concentrations of used substrates were between 0.2–3 fold the Km). Urea was determined by a colorimetric method with α-isonitrosopropiophenone. The protein concentrations were determined by the Bradford’s method, with bovine serum albumin as standard. Initial velocity and enzymatic inhibition experiments were performed in duplicate and repeated three times. The inhibitory patterns were initially determined by double reciprocal plots and re-plots of intercepts and slopes versus inhibitor concentrations. […] Velocities are expressed as μmol of urea/10 min.

[2] = biological target: T2, type I human arginase D181T/V182E (Homo sapiens, UniProt P05089, D181T/V182E); test: Kinetic and inhibition studies, D181T/V182E double mutant; type: biochemical; settings: substrate arginine
T2 construct: made in house; host or cells: E. coli JM109
T2 sequence (P05089 1-322 D181T/V182E): T1 sequence (P05089 1-322) with D181T, V182E
Protocol: as §1
(§3) The single, double, triple, and chimera variants of human arginase type I were obtained by PCR, using the QuickChange site-directed mutagenesis kit (Stratagene, La Jolla, CA, USA); the plasmid pBluescript II KS(+) containing the human liver arginase cDNA was used as template. To obtain the chimeric species of human arginase type I, serial mutations were made in each loop to be modified, using as template DNA the wild-type arginase gene or the previous done mutation, subcloned in the plasmid pBluescript II KS (+). Specifically, the residues present in the arginase structure were replaced by those corresponding to the agmatinase sequence of E. coli.
as §2

[3] = biological target: T3, human arginase type I N139D (Homo sapiens, UniProt P05089, N139D); test: Kinetic and inhibition studies, N139D mutant; type: biochemical; settings: arginine 5 mM, pH 9.5; Figure 3A
T3 sequence (P05089 1-322 N139D): T1 sequence (P05089 1-322) with N139D
Protocol: as §1, §3, §2

rat liver arginase = system: rat liver arginase; set-up: method as in PMID 8031143; settings: substrate agmatine; cited from earlier work
[4] = biological target: T4, human arginase type I S137C (Homo sapiens, UniProt P05089, S137C); test: Kinetic and inhibition studies, S137C mutant; type: biochemical; settings: arginine 5 mM, pH 9.5; Figure 3A
T4 sequence (P05089 1-322 S137C): T1 sequence (P05089 1-322) with S137C
Protocol: as §1, §3, §2

[5] = biological target: T5, human arginase type I N130D (Homo sapiens, UniProt P05089, N130D); test: Kinetic and inhibition studies, N130D mutant; type: biochemical; settings: arginine 5 mM, pH 9.5; Figure 3A
T5 sequence (P05089 1-322 N130D): T1 sequence (P05089 1-322) with N130D
Protocol: as §1, §3, §2

[6] = biological target: T6, Chimera A1 (I129T/N130Y/T131A) of human arginase type I (Homo sapiens, UniProt P05089, I129T/N130Y/T131A); test: Kinetic and inhibition studies, Chimera A1; type: biochemical; settings: substrate arginine
T6 sequence (P05089 1-322 I129T/N130Y/T131A): T1 sequence (P05089 1-322) with I129T, N130Y, T131A
Protocol: as §1, §3, §2

E. coli agmatinase = biological target: T7, E. coli agmatinase (Escherichia coli, UniProt P60651); test: Kinetic studies, E. coli agmatinase; type: biochemical; settings: substrate = labelled compound; n/a = no activity with the substrate
T7 sequence (P60651 1-306): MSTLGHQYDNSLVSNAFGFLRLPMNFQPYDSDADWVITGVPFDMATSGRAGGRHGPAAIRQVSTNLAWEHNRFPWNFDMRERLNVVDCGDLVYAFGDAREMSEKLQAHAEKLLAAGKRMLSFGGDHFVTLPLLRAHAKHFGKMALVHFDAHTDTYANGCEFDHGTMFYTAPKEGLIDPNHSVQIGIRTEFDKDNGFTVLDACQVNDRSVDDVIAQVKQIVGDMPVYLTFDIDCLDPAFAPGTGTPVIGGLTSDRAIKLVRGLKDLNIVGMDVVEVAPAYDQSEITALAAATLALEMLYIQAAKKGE
Protocol: as §2

[7] = biological target: T8, Chimera A2 (I129T/N130Y/T131A+∆ P132-T134) of human arginase type I (Homo sapiens, UniProt P05089, DEL129-131/I129T/L133Y/N130Y/P132T/T134A); test: Kinetic and inhibition studies, Chimera A2; type: biochemical; settings: substrate agmatine
T8 construct: made in house; host or cells: E. coli JM109
T8 sequence (P05089 with tags, fused parts or gaps DEL129-131/P132T/L133Y/T134A): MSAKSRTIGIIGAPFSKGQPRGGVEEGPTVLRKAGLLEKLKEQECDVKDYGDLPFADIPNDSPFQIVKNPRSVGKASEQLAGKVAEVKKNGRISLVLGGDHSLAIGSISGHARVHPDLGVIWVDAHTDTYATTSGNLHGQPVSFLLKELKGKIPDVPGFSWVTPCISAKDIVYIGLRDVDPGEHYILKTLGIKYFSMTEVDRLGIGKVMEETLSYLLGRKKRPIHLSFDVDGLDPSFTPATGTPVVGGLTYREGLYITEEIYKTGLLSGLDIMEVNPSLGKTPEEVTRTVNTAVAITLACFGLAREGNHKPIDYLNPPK
Protocol: as §1, §3, §2

[8] = biological target: T9, type I human arginase D181T (Homo sapiens, UniProt P05089, D181T); test: Kinetic and inhibition studies, D181T mutant; type: biochemical; settings: substrate arginine
T9 sequence (P05089 1-322 D181T): T1 sequence (P05089 1-322) with D181T
Protocol: as §1, §3, §2

[9] = biological target: T10, type I human arginase V182E (Homo sapiens, UniProt P05089, V182E); test: Kinetic and inhibition studies, V182E mutant; type: biochemical; settings: substrate arginine
T10 sequence (P05089 1-322 V182E): T1 sequence (P05089 1-322) with V182E
Protocol: as §1, §3, §2

[10] = biological target: T11, type I human arginase D181T/V182E + ins F (Homo sapiens, UniProt P05089, D181E/D181T/INS180T/V182E/V182F); test: Kinetic and inhibition studies, D181T/V182E + ins F; type: biochemical; settings: substrate arginine
T11 sequence (P05089 with tags, fused parts or gaps INS180T/D181E/V182F): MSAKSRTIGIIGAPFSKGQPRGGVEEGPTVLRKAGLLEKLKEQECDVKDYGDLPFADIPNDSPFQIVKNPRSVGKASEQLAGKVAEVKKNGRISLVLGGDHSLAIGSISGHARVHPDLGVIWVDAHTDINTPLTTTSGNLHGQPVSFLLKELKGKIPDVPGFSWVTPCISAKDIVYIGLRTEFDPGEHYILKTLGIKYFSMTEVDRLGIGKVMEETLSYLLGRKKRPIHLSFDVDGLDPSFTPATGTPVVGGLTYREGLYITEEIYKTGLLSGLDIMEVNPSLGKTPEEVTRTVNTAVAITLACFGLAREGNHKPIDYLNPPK
Protocol: as §1, §3, §2

Kis (Ki) ([1]; pH 9.5) [mM]	Inhibition type [2]	Kis (Ki) [2] [mM]	Inhibition type [7]	Inhibition type [8]	Kis [8] [mM]	Inhibition type [9]	Kis [9] [mM]	Kis [7] [mM]	Inhibition type [10]	Kis [10] [mM]	SMILES	Inhibition of arginase activity by agmatine ([1]; arginine 5 mM, pH 9.5, Figure 3A)	Inhibition type [1]	Inhibition of arginase activity by agmatine [3]	kcat, times lower than for arginine (rat liver arginase)	Inhibition of arginase activity by agmatine [4]	Inhibition of arginase activity by agmatine [5]	Inhibition type [6]	Kis (Ki) [6] [mM]	kcat (E. coli agmatinase) [s⁻¹]
5	competitively inhibited	42									NCCCC[C@H](N)C(=O)O [Lysine, lysine]									
	competitively inhibited		competitive								NCCCCN [Putrescine, putrescine]									
56 ± 4	Competitive	80 ± 5	linear competitive inhibition	Competitive	85 ± 10	Competitive	89 ± 12	40 ± 6	Competitive	70 ± 10	N=C(N)N [Guanidine, guanidine]		Competitive					Competitive	38 ± 6	

SMILES	Kis (Ki) ([1]; pH 9.5) [mM]	Inhibition type [2]	Kis (Ki) [2] [mM]	Inhibition type [7]	Inhibition type [8]	Kis [8] [mM]	Inhibition type [9]	Kis [9] [mM]	Kis [7] [mM]	Inhibition type [10]	Kis [10] [mM]	Inhibition of arginase activity by agmatine ([1]; arginine 5 mM, pH 9.5, Figure 3A)	Inhibition type [1]	Inhibition of arginase activity by agmatine [3]	kcat, times lower than for arginine (rat liver arginase)	Inhibition of arginase activity by agmatine [4]	Inhibition of arginase activity by agmatine [5]	Inhibition type [6]	Kis (Ki) [6] [mM]	kcat (E. coli agmatinase) [s⁻¹]
N=C(N)NCCCCN [Agmatine, 1-amino-4-guanidinobutane]	42 ± 5											poorly inhibited	Competitive	markedly sensitive	approximately 5000 times	markedly sensitive	markedly sensitive	Competitive	27 ± 2	120 ± 10
